Data: article PMC11879040, “Advancing systemic toxicity risk assessment: Evaluation of a NAM-based toolbox approach” (Toxicological Sciences, 2024)
Where two headings read alike, the source gives them in different places.

Tests used:
[1] = system: Tubulin (r); assay: IPP Tubulin binding; parameters: species or system rat
[2] = system: MCF7 cells; assay: High-throughput transcriptomics (HTTr, TempO-Seq), MCF7, 24 h; type: cell-based, human; settings: MCF-7; for pod_httr_bifrost PoD: HTTr BIFROST PoD; for podl_path_minbmd PoD: HTTr minimum pathway BMD(L)
Method: (§1) HepG2, HepaRG, and MCF7 cells were treated with each compound for 24 h across a dose range of 7 concentrations and lysed using TempO-Seq lysis buffer (BioSpyder Technologies, proprietary kit, see [Middleton et al. 2022] for method details). Sequencing was performed using TempO-Seq (BioClavis) version 2 of the human whole transcriptome panel and analyzed as described previously in Middleton et al.

[3] = target: T1, Pregnane X receptor PXR, NR1I2 (h) (Homo sapiens, UniProt O75469)
T1 sequence (O75469 1-434): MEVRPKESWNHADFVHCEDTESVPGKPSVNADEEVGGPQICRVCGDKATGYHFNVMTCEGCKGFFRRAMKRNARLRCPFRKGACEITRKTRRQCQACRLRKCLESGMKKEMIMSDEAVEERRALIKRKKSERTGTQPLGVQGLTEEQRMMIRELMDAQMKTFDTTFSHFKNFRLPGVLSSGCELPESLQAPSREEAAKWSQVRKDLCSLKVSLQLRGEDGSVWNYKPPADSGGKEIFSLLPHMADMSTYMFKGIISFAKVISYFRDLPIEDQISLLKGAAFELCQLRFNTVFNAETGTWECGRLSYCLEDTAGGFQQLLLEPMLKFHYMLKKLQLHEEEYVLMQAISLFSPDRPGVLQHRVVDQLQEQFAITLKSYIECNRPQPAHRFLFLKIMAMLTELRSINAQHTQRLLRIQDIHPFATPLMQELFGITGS

[4] = target: T2, Estrogen receptor, ER1 (h) (Homo sapiens, UniProt P03372); assay: IPP ER1 coactivator recruitment (antagonist); type: biochemical; settings: 100 uM, estriol, * denotes assay interference (2-Amino-6-chloro-4-nitrophenol, HC Red 3)
T2 construct: purchased Eurofins Cerep (SafetyScreen44-based IPP panel)
T2 sequence (P03372 1-595): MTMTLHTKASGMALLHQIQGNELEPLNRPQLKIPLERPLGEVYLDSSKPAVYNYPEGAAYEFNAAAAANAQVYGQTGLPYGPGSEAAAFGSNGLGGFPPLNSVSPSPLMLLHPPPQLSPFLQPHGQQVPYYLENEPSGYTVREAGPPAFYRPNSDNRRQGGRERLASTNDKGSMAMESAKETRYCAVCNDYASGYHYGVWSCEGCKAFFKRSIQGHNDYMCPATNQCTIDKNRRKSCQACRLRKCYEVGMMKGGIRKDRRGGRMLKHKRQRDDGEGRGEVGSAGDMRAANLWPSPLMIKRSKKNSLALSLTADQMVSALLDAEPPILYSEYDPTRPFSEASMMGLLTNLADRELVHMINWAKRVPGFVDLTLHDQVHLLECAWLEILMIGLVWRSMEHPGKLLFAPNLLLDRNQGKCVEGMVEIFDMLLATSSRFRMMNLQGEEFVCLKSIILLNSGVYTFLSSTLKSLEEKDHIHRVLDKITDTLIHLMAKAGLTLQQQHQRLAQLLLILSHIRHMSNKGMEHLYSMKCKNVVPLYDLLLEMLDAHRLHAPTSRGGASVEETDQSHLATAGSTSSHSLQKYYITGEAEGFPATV

[5] = system: HepG2 cells; assay: Cell stress panel (CSP), 24 h, 8 concentrations, BIFROST global PoD; type: cell-based; settings: HepG2; cell stress panel PoD
Method: Compounds were tested using the previously developed cell stress panel ([Hatherell et al. 2020]) and the expanded biomarker panel outlined in Middleton et al. HepG2 cells were treated with all compounds for 24 h across 8 concentrations prior to biomarker analysis. The same plate layout and number of replicates (3 biological and 2 technical) were used as previously for each assay within the panel.

[6] = target: T3, Constitutive androstane receptor CAR, NR1I3 (h) (Homo sapiens, UniProt Q14994); type: biochemical
T3 sequence (Q14994 1-352): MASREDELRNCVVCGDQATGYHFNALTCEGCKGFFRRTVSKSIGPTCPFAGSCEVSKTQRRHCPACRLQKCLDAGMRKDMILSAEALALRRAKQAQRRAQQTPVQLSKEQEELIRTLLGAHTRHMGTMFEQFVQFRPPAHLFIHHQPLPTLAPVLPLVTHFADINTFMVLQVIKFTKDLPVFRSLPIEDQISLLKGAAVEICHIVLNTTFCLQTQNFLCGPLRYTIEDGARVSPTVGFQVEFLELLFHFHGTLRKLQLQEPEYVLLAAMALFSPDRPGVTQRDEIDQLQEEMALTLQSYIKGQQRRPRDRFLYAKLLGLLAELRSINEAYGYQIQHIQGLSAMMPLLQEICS

[7] = system: rat; settings: ref [2], cited from earlier work
[8] = system: HepaRG cells; assay: High-throughput transcriptomics (HTTr, TempO-Seq), HepaRG, 24 h; type: cell-based, human; settings: HepaRG; for pod_httr_bifrost PoD: HTTr BIFROST PoD; for podl_path_minbmd PoD: HTTr minimum pathway BMD(L)
Method: as §1

[9] = system: Potassium Voltage-Gated Channel Kv non-selective, KCNQ1 (r); assay: IPP KCNQ1 binding (antagonist radioligand); parameters: species or system rat
[10] = target: T2, Estrogen receptor, ER1 (h); assay: IPP ER1 coactivator recruitment (agonist); type: biochemical; settings: 100 uM, estriol, * denotes assay interference (2-Amino-6-chloro-4-nitrophenol, HC Red 3)
[11] = system: Thyroid hormone receptor alpha, THRA (h); assay: IPP THRA coactivator recruitment (agonist); type: biochemical, human; settings: agonist, T3
[12] = PBK level L2; per chemical see Peff Reference; ref [3],[4],[11]; cited from earlier work
[13] = target: T4, Adenosine receptor A2a, ADORA2A (h) (Homo sapiens, UniProt P29274); assay: IPP ADORA2A binding (agonist radioligand); settings: control NECA
T4 construct: purchased Eurofins Cerep (SafetyScreen44-based IPP panel)
T4 sequence (P29274 whole entry): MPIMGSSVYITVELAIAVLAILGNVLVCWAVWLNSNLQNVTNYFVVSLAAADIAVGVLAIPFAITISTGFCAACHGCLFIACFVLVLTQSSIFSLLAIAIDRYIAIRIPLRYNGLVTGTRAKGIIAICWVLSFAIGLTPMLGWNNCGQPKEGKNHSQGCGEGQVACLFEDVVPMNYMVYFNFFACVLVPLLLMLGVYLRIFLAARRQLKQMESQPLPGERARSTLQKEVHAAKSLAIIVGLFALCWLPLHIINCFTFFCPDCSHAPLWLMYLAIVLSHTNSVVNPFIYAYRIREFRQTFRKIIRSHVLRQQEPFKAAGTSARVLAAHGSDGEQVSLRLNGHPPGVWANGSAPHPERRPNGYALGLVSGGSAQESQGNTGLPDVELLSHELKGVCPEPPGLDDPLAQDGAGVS

[14] = system: HepG2 cells; assay: High-throughput transcriptomics (HTTr, TempO-Seq), HepG2, 24 h; type: cell-based, human; settings: HepG2; for pod_httr_bifrost PoD: HTTr BIFROST PoD; for podl_path_minbmd PoD: HTTr minimum pathway BMD(L)
Method: as §1

[15] = system: Sodium channel protein type 5 subunit alpha (site 2), SCN5A (r); type: binding, rat
[16] = human
[17] = target: Potassium voltage-gated channel subfamily H member 2 hERG, KCNH2 (h) (Homo sapiens, UniProt Q12809); settings: human, 100 µM
Chain of Potassium voltage-gated channel subfamily H member 2 hERG, KCNH2 (h) (Q12809 whole entry): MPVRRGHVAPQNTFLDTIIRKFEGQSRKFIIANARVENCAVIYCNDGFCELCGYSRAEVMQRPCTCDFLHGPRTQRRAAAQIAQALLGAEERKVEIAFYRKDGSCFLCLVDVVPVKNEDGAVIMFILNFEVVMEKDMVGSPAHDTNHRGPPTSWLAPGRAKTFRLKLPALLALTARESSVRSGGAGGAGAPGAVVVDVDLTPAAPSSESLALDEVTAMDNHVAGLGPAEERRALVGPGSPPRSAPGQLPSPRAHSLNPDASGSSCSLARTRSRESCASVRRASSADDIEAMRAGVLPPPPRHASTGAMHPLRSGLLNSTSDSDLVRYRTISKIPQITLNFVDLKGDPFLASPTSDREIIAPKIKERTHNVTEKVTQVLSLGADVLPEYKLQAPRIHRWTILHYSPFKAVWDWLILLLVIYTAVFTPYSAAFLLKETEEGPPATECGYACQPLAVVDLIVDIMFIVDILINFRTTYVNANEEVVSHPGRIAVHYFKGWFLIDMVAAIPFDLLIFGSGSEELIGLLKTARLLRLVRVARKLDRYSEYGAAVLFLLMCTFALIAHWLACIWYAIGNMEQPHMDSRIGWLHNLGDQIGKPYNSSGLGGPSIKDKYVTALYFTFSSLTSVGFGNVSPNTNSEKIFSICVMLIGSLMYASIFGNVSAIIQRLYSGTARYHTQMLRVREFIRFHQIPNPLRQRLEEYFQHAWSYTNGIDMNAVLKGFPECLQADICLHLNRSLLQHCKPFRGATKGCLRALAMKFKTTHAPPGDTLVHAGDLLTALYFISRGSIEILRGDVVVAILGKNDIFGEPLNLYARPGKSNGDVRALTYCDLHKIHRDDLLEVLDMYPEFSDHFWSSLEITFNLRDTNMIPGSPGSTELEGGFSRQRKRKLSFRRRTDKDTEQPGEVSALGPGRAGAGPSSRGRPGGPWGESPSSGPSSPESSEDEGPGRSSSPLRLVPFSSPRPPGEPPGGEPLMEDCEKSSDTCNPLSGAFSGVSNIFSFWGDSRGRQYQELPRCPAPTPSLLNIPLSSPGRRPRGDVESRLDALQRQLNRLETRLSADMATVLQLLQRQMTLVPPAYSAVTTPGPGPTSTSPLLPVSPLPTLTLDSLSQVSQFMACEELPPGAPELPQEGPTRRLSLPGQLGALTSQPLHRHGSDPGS

[18] = system: 63 targets with known safety liabilities; assay: In vitro pharmacological profiling (IPP) panel, screening at 10 or 100 µM and dose response, minimum IC50/AC50; type: biochemical; settings: lowest AC50 across IPP panel (systemic targets); cell_type -; read-out: ipp_lowest_ac50_systemic PoD
[19] = system: Gamma-aminobutyric acid receptor subunit alpha-1 BZD site, GABRA1A (r); type: binding, rat
[20] = system: Glutamate receptor ionotropic NMDA 1 non-selective, GRIN1 (r)
[21] = system: mouse; settings: mouse, cited from earlier work
[22] = target: T5, Progesterone receptor, PGR (h) (Homo sapiens, UniProt P06401); assay: biochemical; type: biochemical
T5 sequence (P06401 1-933): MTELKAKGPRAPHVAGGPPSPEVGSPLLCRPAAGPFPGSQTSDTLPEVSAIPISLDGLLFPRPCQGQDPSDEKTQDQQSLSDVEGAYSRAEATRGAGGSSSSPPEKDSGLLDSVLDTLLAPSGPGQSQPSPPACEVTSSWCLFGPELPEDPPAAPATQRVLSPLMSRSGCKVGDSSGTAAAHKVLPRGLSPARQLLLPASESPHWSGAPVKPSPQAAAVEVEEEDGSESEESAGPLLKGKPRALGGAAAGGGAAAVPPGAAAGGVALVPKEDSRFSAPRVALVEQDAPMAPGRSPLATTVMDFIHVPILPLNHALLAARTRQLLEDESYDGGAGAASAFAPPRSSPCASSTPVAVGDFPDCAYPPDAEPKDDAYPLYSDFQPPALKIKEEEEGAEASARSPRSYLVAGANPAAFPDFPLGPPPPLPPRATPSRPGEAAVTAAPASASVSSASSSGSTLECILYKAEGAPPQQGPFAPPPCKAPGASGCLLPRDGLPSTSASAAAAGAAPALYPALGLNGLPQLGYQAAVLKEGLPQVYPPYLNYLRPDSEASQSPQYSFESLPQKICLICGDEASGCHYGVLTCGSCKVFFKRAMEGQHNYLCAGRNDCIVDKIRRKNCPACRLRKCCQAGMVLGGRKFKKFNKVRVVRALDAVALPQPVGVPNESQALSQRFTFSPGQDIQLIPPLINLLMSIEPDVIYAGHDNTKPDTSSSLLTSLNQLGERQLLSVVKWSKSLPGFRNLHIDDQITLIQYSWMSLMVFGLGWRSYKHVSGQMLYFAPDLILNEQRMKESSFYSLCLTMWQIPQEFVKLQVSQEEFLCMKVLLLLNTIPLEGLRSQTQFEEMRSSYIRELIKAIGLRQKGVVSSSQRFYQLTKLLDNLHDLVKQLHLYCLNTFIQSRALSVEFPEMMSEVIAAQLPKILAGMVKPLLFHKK

[23] = target: Voltage-dependent L-type Ca2+ channel (dihydropyridine site), CACNA1C (r) (Rattus norvegicus, UniProt P22002); type: binding
Chain of Voltage-dependent L-type Ca2+ channel (dihydropyridine site), CACNA1C (r) (P22002 whole entry): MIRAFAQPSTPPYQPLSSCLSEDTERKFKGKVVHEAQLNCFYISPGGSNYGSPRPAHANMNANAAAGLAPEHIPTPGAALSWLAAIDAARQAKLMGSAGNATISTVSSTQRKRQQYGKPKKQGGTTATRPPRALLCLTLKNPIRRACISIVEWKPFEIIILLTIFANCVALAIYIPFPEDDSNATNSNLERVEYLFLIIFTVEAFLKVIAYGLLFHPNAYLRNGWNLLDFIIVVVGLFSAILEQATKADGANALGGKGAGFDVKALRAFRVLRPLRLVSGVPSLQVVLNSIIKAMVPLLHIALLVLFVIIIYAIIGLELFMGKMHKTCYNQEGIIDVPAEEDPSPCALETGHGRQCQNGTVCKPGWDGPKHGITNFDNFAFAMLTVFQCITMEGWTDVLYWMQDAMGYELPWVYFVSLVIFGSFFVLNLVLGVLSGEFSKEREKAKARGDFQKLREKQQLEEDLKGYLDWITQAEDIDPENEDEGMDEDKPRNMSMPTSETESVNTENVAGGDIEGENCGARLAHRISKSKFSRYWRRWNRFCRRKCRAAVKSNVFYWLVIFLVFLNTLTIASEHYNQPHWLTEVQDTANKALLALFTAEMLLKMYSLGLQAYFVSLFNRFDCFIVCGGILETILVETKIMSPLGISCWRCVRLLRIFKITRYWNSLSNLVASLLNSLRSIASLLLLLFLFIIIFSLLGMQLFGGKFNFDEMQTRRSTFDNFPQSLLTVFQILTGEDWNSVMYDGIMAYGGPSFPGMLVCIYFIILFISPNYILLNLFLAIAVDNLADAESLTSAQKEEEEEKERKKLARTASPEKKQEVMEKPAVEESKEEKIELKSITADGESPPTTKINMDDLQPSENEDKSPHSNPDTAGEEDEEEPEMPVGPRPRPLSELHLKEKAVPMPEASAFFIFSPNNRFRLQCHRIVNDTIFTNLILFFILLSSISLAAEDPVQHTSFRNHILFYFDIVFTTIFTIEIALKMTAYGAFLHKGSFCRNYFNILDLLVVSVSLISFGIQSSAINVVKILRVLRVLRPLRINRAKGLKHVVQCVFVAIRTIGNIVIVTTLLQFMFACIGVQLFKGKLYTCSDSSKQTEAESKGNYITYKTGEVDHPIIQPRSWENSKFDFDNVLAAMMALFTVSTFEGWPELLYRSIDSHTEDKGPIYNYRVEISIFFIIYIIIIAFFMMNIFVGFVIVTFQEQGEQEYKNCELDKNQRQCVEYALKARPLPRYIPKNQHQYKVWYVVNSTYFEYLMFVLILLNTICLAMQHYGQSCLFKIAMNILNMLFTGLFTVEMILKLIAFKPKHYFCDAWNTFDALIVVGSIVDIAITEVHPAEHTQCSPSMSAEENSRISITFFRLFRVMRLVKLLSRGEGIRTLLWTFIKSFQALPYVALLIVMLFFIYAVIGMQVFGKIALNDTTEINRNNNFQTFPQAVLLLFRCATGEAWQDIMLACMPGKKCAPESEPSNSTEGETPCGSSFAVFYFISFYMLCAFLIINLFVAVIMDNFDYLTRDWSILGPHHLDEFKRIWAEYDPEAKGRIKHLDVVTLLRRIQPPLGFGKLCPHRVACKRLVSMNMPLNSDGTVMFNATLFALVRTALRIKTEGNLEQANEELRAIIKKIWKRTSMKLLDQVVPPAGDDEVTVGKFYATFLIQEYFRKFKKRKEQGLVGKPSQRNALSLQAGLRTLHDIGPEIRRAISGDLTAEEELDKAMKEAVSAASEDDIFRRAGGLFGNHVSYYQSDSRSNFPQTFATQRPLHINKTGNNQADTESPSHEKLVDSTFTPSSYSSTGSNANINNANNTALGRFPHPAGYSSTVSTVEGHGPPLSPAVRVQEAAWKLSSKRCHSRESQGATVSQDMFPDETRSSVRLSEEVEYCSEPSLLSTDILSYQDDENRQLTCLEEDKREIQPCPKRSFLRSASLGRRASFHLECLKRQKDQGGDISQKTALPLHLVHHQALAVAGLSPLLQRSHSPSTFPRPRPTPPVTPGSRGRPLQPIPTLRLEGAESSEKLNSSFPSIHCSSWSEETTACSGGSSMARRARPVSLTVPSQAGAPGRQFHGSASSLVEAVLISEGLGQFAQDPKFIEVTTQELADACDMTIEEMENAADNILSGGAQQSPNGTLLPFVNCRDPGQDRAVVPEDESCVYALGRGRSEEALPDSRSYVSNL

[24] = 12 healthy female, cited from earlier work
[25] = 100 uM, ligand/control Colchicine
[26] = 100 uM, * denotes assay interference (2-Amino-6-chloro-4-nitrophenol, HC Red 3)
[27] = IPP screening at 100 uM, control CGS 19755
[28] = Oral 50 mg (IR: Capsule), fasted, calibration, ref Huttner et al. 2018
[29] = human, Oral 100 mg, Fasted, validation, ref Huttner et al., Journal of Antimicrobial Chemotherapy (2018) 74(6): 1656-1661

| Structure (SMILES) | IPP screening %, Specific binding [1, 25] [%] | pod_httr_bifrost PoD [2] [µM] | podl_path_minbmd PoD [2] [µM] | pod_cell_stress PoD [5] [µM] | pod_httr_bifrost PoD [8] [µM] | podl_path_minbmd PoD [8] [µM] | IPP screening %, Coactivator recruitment [11, 26] | Specific binding ([13]; IPP screening at 100 uM) [%] | pod_httr_bifrost PoD [14] [µM] | podl_path_minbmd PoD [14] [µM] | risk [16] | Specific binding [20, 27] [%] | Specific binding [15] [%] | Specific binding [19] [%] | other results |
| --- | --- | --- | --- | --- | --- | --- | --- | --- | --- | --- | --- | --- | --- | --- | --- |
| Nc1cc([N+](=O)[O-])cc(Cl)c1O [2-Amino-6-chloro-4-nitrophenol] | 5.0 | 0.4471 | 9.316 | 0.2197 | 1.518 | 35.7772 | 41.0* % | 3.6 | 0.8029 | 158.096 | 0 | 21.2 |  |  | IPP Dose Response PoD: PXR antagonist [3]: [37.1,80.3]; IPP screening %, Coactivator recruitment [4]: -9.0* %; IPP Dose Response PoD: CAR antagonist effect [6]: [40.9,86.1]; NOAEL ([7]; 90-day rat study, increased liver weights): 10 mg/kg bw/day; dose up to which no maternal or fetal effects were observed ([7]; reproductive and developmental toxicity rat study): 90 mg/kg bw/day; Specific binding ([9]; IPP screening at 100 uM, control α-dendrotoxin): 13.7%; IPP screening %, Coactivator recruitment [10]: 6.0* %; Peff [12]: 7.96 cm/s x E-04; Specific binding ([15]; IPP screening at 100 uM, control veratridine): 31.5%; IPP screening %, Specific binding [17]: 10.7%; AC50 [18]: 1530 nM; Specific binding ([19]; IPP screening at 100 uM, control diazepam): 14.3% |
| O=P1(N(CCCl)CCCl)NCCCO1 (stereo not shown) [Cyclophosphamide, 2-[Bis(2-chloroethyl)amino]-1,3,2lambda~5~-oxazaphosphinan-2-one] | -4.0 | 0.08892 | 210.107 | 3.329 | 7.071 | 31.838 | -1.0% | 15.0 | 118.124 | 783.625 | 1 | 6.8 | 12.4 | 19.4 | Specific binding [9]: 17.5%; PoD (NOAEL) ([21]; 42 days, developmental neurotox study, ref ToxRefDB/Paul-Friedman et al. (2020)/regulatory opinions): 45 mg/kg bw/day; EC50 [22]: > 300000 nM |
| O=C1CN(N=Cc2ccc([N+](=O)[O-])o2)C(=O)N1 [Nitrofurantoin, 1-{[(5-Nitrofuran-2-yl)methylidene]amino}imidazolidine-2,4-dione] |  | 0.3553 | 7.519 | 0.5175 | 0.1863 | 2.332 |  |  | 0.5233 | 2.98 | 1 |  | 4.4 | 7.2 | IPP screening %, Specific binding [1]: 7.0%; Specific binding [23]: -6.9%; Specific binding ([9]; IPP screening at 10 uM, control α-dendrotoxin): -14.6%; Reported AUC0-t [24, 28]: 3040 to 6400 ng·h/mL; Reported cmax [24, 28]: 0.21 to 0.45 mg/L; Reported tmax [24, 28]: 30 to 300 min; Reported AUC0-t [24, 29]: 940 to 10970 ng·h/mL; Reported cmax [24, 29]: 0.22 to 1.26 mg/L; Reported tmax [24, 29]: 30 to 300 min; IPP screening %, Coactivator recruitment ([11]; 10 uM): 0.0%; Specific binding ([13]; IPP screening at 10 uM): 37.8%; PoD (NOAEL) ([21]; in vivo): 60 mg/kg bw/day; Specific binding [20]: -2.8% |
